Tested on: human myeloma cell line MM.1S
Experiment: SILAC acetylated-lysine peptide profiling, HDAC inhibitor vs DMSO (light/heavy ratio)
Format: cell-based
From the text: An embodiment of the invention comprises utilizing the SILAC method in order to quantitate changes in protein expression between two or more populations of cells. The SILAC method is a technique based on mass spectrometry that detects differences in protein abundance among samples using non-radioactive isotopic labeling. The SILAC method is known in the art, and described in detail in Ong et al., “Stable Isotope Labeling by Amino Acids in Cell Culture, SILAC, as a Simple and Accurate Approach to Expression Proteomics”, Molecular & Cellular Proteomics, vol. 1, pp. 376-386 (2002), which is incorporated herein by reference in its entirety.
Briefly, the SILAC method involves growing two populations of cells in cell culture. The first population of cells is grown in growth media containing normal amino acids (“normal media”). The second population of cells is grown in media lacking a standard essential amino acid (such as lysine), but is then supplemented with a non-radioactive, isotopically labeled form of that essential amino acid (such as lysine labeled with ^13C atoms, rather than normal ^12C atoms), which is called “heavy media”. When the two populations of cells are each growing in the medium, they incorporate the amino acids into all of their proteins. The growth of cells maintained in the heavy media is no different from that in normal media. All peptides containing the heavy amino acids are heavier than their normal counterparts. The cells from each of the two populations of cells are lysed. The lysates from each of the two cell populations are then combined. The combined cell lysates are then analyzed by mass spectrometry. Pairs of chemically identical peptides of different stable isotope composition can be differentiated in a mass spectrometer due to their difference in mass. The ratio of peak intensities in the mass spectrum for such peptide pairs reflects the abundance ratio for the two proteins.
This example describes SILAC studies that were performed to compare the effects of three different HDAC inhibitors (Compound A, Compound B, and tubastatin A) to a control on a human multiple myeloma cell line. The HDAC inhibitors were also compared amongst themselves to determine differences in their effects.
A human myeloma cell line MM.1S was grown using either ^12C (light) or ^13C (heavy) lysine containing culture medium. The “heavy” cells were treated with DMSO as the control, and the “light” cells were treated with a single HDAC inhibitor at 37° C. for 6 hours. The heavy and light cells were lysed, and the lysates were mixed in 1:1 ratio and digested with the protease trypsin. The acetylated lysine containing peptides (due to the action of the HDAC inhibitor) in the digested peptide pool were captured by a non-specific anti-acetylated lysine antibody cocktail (the antibodies identify both light and heavy acetylated peptides), and subjected to mass spectrometry analysis in order to identify thousands of individual peptides.
Thousands of peptides were identified in pairs (^12C and ^13C) due to their known mass differences. The amino acid sequence and quantitative ratio (Light/Heavy) of a given peptide in two differentially treated cell lysates were then determined and annotated with their possible protein (gene) sources.
As stated above, three HDAC inhibitors (Compound A, Compound B, and Tubastatin A) were used. Thus, the SILAC method was performed three times, with a different HDAC inhibitor compared to a control each time. Accordingly, there are three pairs of quantitative data in the table below, i.e., Compound A:DMSO, Compound B:DMSO, and Tubastatin A:DMSO. A cut-off of 1.30 fold of change (increase or decrease) was then used to determine “changed” or “+” in the table, and any peptides with a fold of change less than 1.3 fold were determined to be “unchanged” or “0” in the table. Those peptides that were not identified were marked as “NA” in the table. […]

CN1CCc2c(c3ccccc3n2Cc2ccc(C(=O)NO)cc2)C1 [Tub A]
light to heavy ratio (L/H ratio) of acetylated peptide AVDCLLDSK(ac)WAK (SEQ ID NO: 518) (Translocation protein SEC62 [60], gene SEC62, inhibitor:DMSO): 0.00 log 2 | light to heavy ratio (L/H ratio) of acetylated peptide VK(ac)FIHDQTSPNPK (SEQ ID NO: 562) (Tricarboxylate transport protein mitochondrial [149], gene SLC25A1, inhibitor:DMSO): 0.00 log 2 | light to heavy ratio (L/H ratio), log 2 scale, acetylated peptide FGAPQK(ac)DVK (SEQ ID NO: 788) (Trifunctional enzyme subunit alpha mitochondrial [359], gene HADHA, drug:DMSO): 0.00 | light to heavy ratio (L/H ratio), log 2 scale, acetylated peptide ILQEGVDPK(ac)K (SEQ ID NO: 789) (Trifunctional enzyme subunit alpha mitochondrial [569], gene HADHA, drug:DMSO): 0.00 | light to heavy ratio (L/H ratio) of acetylated peptide VPGK(ac)DTVTK (SEQ ID NO: 308) (Trifunctional enzyme subunit beta mitochondrial [272], HADHB, drug:DMSO): 0.40 log 2 | L/H ratio of acetylated peptide VVVTK(ac)YCDPDSYHR (SEQ ID NO: 114) (U2AF2 [462], log 2 scale, drug vs DMSO): −0.43 | L/H ratio of acetylated peptide (VAILK(ac)ANLR (SEQ ID NO: 488), Transitional endoplasmic reticulum ATPase [658], VCP): 0.00 log 2 | light to heavy ratio (L/H ratio) of acetylated peptide, log 2 scale (VALEIFQHSK(ac)YK (SEQ ID NO: 183), Isoform 2 of 39S ribosomal protein L39 mitochondrial [234], MRPL39): 0.64 | L/H ratio of acetylated peptide FGIAAK(ac)YQIDPDACFSAK (SEQ ID NO: 115) (VDAC1 [224], log 2 scale, drug vs DMSO): 0.47 | L/H ratio of acetylated peptide YK(ac)WCEYGLTFTEK (SEQ ID NO: 116) (VDAC2 [63], log 2 scale, drug vs DMSO): 0.59 | L/H ratio of acetylated peptide (ac)CNTPTYCDLGK(ac)AAK (SEQ ID NO: 6) (VDAC3 [12], log 2 scale, drug vs DMSO): 0.52 | L/H ratio of acetylated peptide YK(ac)VCNYGLTFTQK (SEQ ID NO: 117) (VDAC3 [63], log 2 scale, drug vs DMSO): 0.40 | L/H ratio of acetylated peptide (VIIVVK(ac)DGPGFYTTR (SEQ ID NO: 401), Trifunctional enzyme subunit alpha mitochondrial [540], HADHA): 0.00 log 2 | L/H ratio of acetylated peptide TNEK(ac)VELQELNDR (SEQ ID NO: 122) (VIM [104], log 2 scale, drug vs DMSO): −0.59 | L/H ratio of acetylated peptide FANYIDK(ac)VR (SEQ ID NO: 118) (VIM [120], log 2 scale, drug vs DMSO): −0.65 | L/H ratio of acetylated peptide ILLAELEQLK(ac)GQGK (SEQ ID NO: 119) (VIM [139], log 2 scale, drug vs DMSO): −0.82 | L/H ratio of acetylated peptide SK(ac)FADLSEAANR (SEQ ID NO: 121) (VIM [294], log 2 scale, drug vs DMSO): −0.60 | L/H ratio of acetylated peptide LQDEIQNMK(ac)EEMAR (SEQ ID NO: 120) (VIM [373], log 2 scale, drug vs DMSO): −0.72 | light to heavy ratio (L/H ratio) of acetylated peptide, log 2 scale (VLK(ac)GNTAEGCVHETQEK (SEQ ID NO: 186), Isoform 1 of Myb-binding protein 1A [935], MYBBP1A): −0.43 | light to heavy ratio (L/H ratio) of acetylated peptide, log 2 scale (VLPSIVNEVLK(ac)SVVAK (SEQ ID NO: 195), Prohibitin-2 [142], PHB2): 1.00 | light to heavy ratio (L/H ratio) of acetylated peptide, log 2 scale (VNLQNNPGAMEHFHMK(ac)LFR (SEQ ID NO: 136), B-cell receptor-associated protein 31 [95], BCAP31): 0.52 | light to heavy ratio (L/H ratio) of acetylated peptide, log 2 scale (VTEK(ac)IPVR (SEQ ID NO: 168), Isoform Short of Heterogeneous nuclear ribonucleoprotein U [324], HNRNPU): −0.76 | light to heavy ratio (L/H ratio) of acetylated peptide, log 2 scale (VVVGK(ac)TFDSIVMDPK (SEQ ID NO: 193), Protein disulfide-isomerase A4 [533], PDIA4): −0.80 | light to heavy ratio (L/H ratio) of acetylated peptide DLQQYQSQAK(ac)QLFR (SEQ ID NO: 321) (Vesicle-trafficking protein SEC22b [38], SEC22B, drug:DMSO): 0.46 log 2 | light to heavy ratio (L/H ratio) of acetylated peptide TLLIK(ac)TVETR (SEQ ID NO: 269) (Vimentin [445], VIM, drug:DMSO): −0.54 log 2 | light to heavy ratio (L/H ratio) of acetylated peptide, log 2 scale (WVFK(ac)EEGVLR (SEQ ID NO: 150), Dolichyl-diphosphooligosaccharide--protein glycosyltransferase 48 kDa subunit [301], DDOST): −0.53 | light to heavy ratio (L/H ratio) of acetylated peptide KQELLEALTK(ac)HFQD (SEQ ID NO: 355) (X-ray repair cross-complementing protein 6 [605], XRCC6, drug:DMSO): 0.00 log 2 | L/H ratio of acetylated peptide ALQEK(ac)VEIK (SEQ ID NO: 123) (XRCC5 [665], log 2 scale, drug vs DMSO): −0.46 | light to heavy ratio (L/H ratio) of acetylated peptide, log 2 scale (YGPFVADFADK(ac)LNEQK (SEQ ID NO: 134), ATP synthase subunit b mitochondrial [126], ATP5F1): −0.45 | light to heavy ratio (L/H ratio) of acetylated peptide, log 2 scale (YIAK(ac)QESVEER (SEQ ID NO: 140), Isoform 3 of Coiled-coil domain-containing protein 144A [754], CCDC144A): −0.42 | light to heavy ratio (L/H ratio) of acetylated peptide, log 2 scale (YLENGK(ac)ETLQR (SEQ ID NO: 163), Putative HLA class I histocompatibility antigen alpha chain H [200], HLA-H): −0.46 | light to heavy ratio (L/H ratio) of acetylated peptide, log 2 scale (YLLYGEK(ac)GTGK (SEQ ID NO: 147), 28S ribosomal protein S29 mitochondrial [130], DAP3): 0.46 | light to heavy ratio (L/H ratio) of acetylated peptide YFLDK(ac)TLTSR (SEQ ID NO: 293) ([3-methyl-2-oxobutanoate dehydrogenase [lipoamide]] kinase mitochondrial [192], BCKDK, drug:DMSO): 0.50 log 2 | light to heavy ratio (L/H ratio) of acetylated peptide, log 2 scale ([…](ac)PER (SEQ ID NO: 219), cDNA FLJ59739 highly similar to Protein transport protein Sec61 subunit alpha isoform 1 [27], SEC61A1): 0.49 | light to heavy ratio (L/H ratio) of acetylated peptide SAYFAEK(ac)LYK (SEQ ID NO: 292) (annexin A4 [255], ANXA4, drug:DMSO): 0.62 log 2 | light to heavy ratio (L/H ratio) of acetylated peptide ILMSK(ac)PVLSGGTGR (SEQ ID NO: 291) (cDNA FLJ55380 highly similar to Protein kinase C-binding protein 1 [440], ZMYND8, drug:DMSO): 0.65 log 2 | light to heavy ratio (L/H ratio) of acetylated peptide YDGK(ac)WEVEEMK (SEQ ID NO: 274) (cDNA FLJ55574 highly similar to Calnexin [138], CANX, drug:DMSO): −0.49 log 2 | light to heavy ratio (L/H ratio) of acetylated peptide LNK(ac)PFLFDTK (SEQ ID NO: 327) (cDNA FLJ55574 highly similar to Calnexin [172], CANX, drug:DMSO): 0.00 log 2 | light to heavy ratio (L/H ratio) of acetylated peptide LLASK(ac)SLLNR (SEQ ID NO: 322) (cDNA FLJ56303 highly similar to Translocon-associated protein subunit beta [46], SSR2, drug:DMSO): −0.59 log 2 | light to heavy ratio (L/H ratio) of acetylated peptide IINEVSK(ac)PLAHHIPVEK (SEQ ID NO: 341) (cDNA FLJ77177 highly similar to Homo sapiens arginine-rich mutated in early stage tumors (ARMET) mRNA [97], MANF, drug:DMSO): 0.00 log 2 | light to heavy ratio (L/H ratio) of acetylated peptide TNVPVK(ac)LFAR (SEQ ID NO: 348) (cDNA FLJ77422 highly similar to Homo sapiens RNA binding protein autoantigenic (hnRNP-associated with lethal yellow homolog (mouse)) transcript variant 1 mRNA (Fragment) [165], RALY, drug:DMSO): 0.00 log 2 | light to heavy ratio (L/H ratio) of acetylated peptide GSK(ac)FYGPAGPYGIFAGR (SEQ ID NO: 265) (membrane-associated progesterone receptor component 2 [159], PGRMC2, drug:DMSO): −0.45 log 2 | light to heavy ratio (L/H ratio) of acetylated peptide SK(ac)SDPIMLLK (SEQ ID NO: 255) (pyruvate dehydrogenase E1 component subunit alpha somatic form mitochondrial isoform 2 precursor [351], PDHA1, drug:DMSO): 0.52 log 2 | light to heavy ratio (L/H ratio) of acetylated peptide LTSLNVK(ac)YNNDK (SEQ ID NO: 590) (regulator of differentiation 1 isoform 2 [236], gene ROD1, inhibitor:DMSO): 0.00 log 2 | light to heavy ratio (L/H ratio) of acetylated peptide GWLK(ac)SNVSDAVAQSTR (SEQ ID NO: 278) (triosephosphate isomerase isoform 2 [231], TPI1, TPI1P1, drug:DMSO): −0.41 log 2
